pIC50: −log10 of the molar value.
Biological target: T1, MAGL (Homo sapiens, UniProt Q99685)
T1 sequence (Q99685 1-303): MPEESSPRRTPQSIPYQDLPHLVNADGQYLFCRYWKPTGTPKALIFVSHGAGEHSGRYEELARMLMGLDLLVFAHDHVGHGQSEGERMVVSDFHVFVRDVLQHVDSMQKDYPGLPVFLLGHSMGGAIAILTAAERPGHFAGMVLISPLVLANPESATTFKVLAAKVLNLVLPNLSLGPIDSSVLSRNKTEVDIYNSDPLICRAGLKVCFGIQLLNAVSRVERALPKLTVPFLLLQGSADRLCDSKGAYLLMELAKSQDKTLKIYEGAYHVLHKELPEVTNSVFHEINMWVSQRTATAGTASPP
Test: 2-AG assay: MAGL inhibitory activity by hydrolysis of 2-arachidonoylglycerol to arachidonic acid, mass spectrometry
Format: biochemical
Conditions: 2-AG assay (values marked [b])
Method: Alternatively, compounds were profiled for MAGL inhibitory activity by determining the enzymatic activity by following the hydrolysis of the natural substrate 2-arachidonoylglycerol (2-AG) resulting in arachidonic acid, which can be followed by mass spectrometry. This assay is hereinafter abbreviated “2-AG assay”.
The 2-AG assay was carried out in 384 well assay plates (PP, Greiner Cat #784201) in a total volume of 20 μL. Compound dilutions were made in 100% DMSO (VWR Chemicals 23500.297) in a polypropylene plate in 3-fold dilution steps to give a final concentration range in the assay from 12.5 μM to […]. 0.25 μL compound dilutions (100% DMSO) were added to 9 μL MAGL in assay buffer (50 mM TRIS (GIBCO, 15567-027), 1 mM EDTA (Fluka, 03690-100 mL), 0.01% (v/v) Tween. After shaking, the plate was incubated for 15 min at RT. To start the reaction, 10 μL 2-arachidonoylglycerol in assay buffer was added. The final concentrations in the assay was […] and 8 μM 2-arachidonoylglyerol. After shaking and 30 min incubation at RT, the reaction was quenched by the addition of 40 μL of ACN containing 4 μM of d8-arachidonic acid. The amount of arachidonic acid was traced by an online SPE system (Agilent Rapidfire) coupled to a triple quadrupole mass spectrometer (Agilent 6460). A C18 SPE cartridge (G9205A) was used in an ACN/water liquid setup. The mass spectrometer was operated in negative electrospray mode following the mass transitions 303.1→259.1 for arachidonic acid and 311.1→267.0 for d8-arachidonic acid. The activity of the compounds was calculated based on the ratio of intensities [arachidonic acid/d8-arachidonic acid].

Compound | pIC50
O=C(c1ccc(-c2cn(CC(F)(F)F)nn2)cc1)N1CCN(c2nc3nc(Cl)ccc3o2)CC1 [Example 98, (4-(5-chlorooxazolo[4,5-b]pyridin-2-yl)piperazin-1-yl)(4-(1-(2,2,2-trifluoroethyl)-1H-1,2,3-triazol-4-yl)phenyl)methanone] | 6.84
Cc1ccc2oc(N3CCN(C(=O)c4ccc(-c5cn(CC(F)(F)F)nn5)cc4)CC3)nc2n1 [Example 99, (4-(5-methyloxazolo[4,5-b]pyridin-2-yl)piperazin-1-yl)(4-(1-(2,2,2-trifluoroethyl)-1H-1,2,3-triazol-4-yl)phenyl)methanone] | 6.28
Cc1ccc2oc(N3CCN(C(=O)c4ccc(-c5cn(CC6(C)COC6)nn5)cc4)CC3)nc2n1 [Example 100, (4-(5-methyloxazolo[4,5-b]pyridin-2-yl)piperazin-1-yl)(4-(1-((3-methyloxetan-3-yl)methyl)-1H-1,2,3-triazol-4-yl)phenyl)methanone] | 5.97
CC1(Cn2cc(-c3ccc(C(=O)N4CCN(c5nc6nc(Cl)ccc6o5)CC4)cc3)nn2)COC1 [Example 101, (4-(5-chlorooxazolo[4,5-b]pyridin-2-yl)piperazin-1-yl)(4-(1-((3-methyloxetan-3-yl)methyl)-1H-1,2,3-triazol-4-yl)phenyl)methanone] | 6.22
O=C(C#Cc1ccccc1)N1CCN(c2nc3nc(Cl)ccc3o2)CC1 [Example 102, 1-(4-(5-chlorooxazolo[4,5-b]pyridin-2-yl)piperazin-1-yl)-3-phenylprop-2-yn-1-one] | 6.03
O=C(C#Cc1ccc(Cl)cc1)N1CCN(c2nc3nc(Cl)ccc3o2)CC1 [Example 103, 1-(4-(5-chlorooxazolo[4,5-b]pyridin-2-yl)piperazin-1-yl)-3-(4-chlorophenyl)prop-2-yn-1-one] | 6.34
C#Cc1ccc(C(=O)N2CCN(c3nc4nc(Cl)ccc4o3)CC2)cc1OC [Example 104, (4-(5-chlorooxazolo[4,5-b]pyridin-2-yl)piperazin-1-yl)(4-ethynyl-3-methoxyphenyl)methanone] | 6.96
O=C(c1ccc(-c2noc(C34CC(C3)C4)n2)cc1)N1CCN(c2nc3nc(Cl)ccc3o2)CC1 [Example 105, [4-[5-(3-bicyclo[1.1.1]pentanyl)-1,2,4-oxadiazol-3-yl]phenyl]-[4-(5-chlorooxazolo[4,5-b]pyridin-2-yl)piperazin-1-yl]methanone] | 8.05
Cc1ccc2oc(N3CCN(C(=O)c4ccc(-c5ncn(C(C)(C)C)n5)c(F)c4)CC3)nc2n1 [Example 106, [4-(1-tert-butyl-1,2,4-triazol-3-yl)-3-fluorophenyl]-[4-(5-methyl-[1,3]oxazolo[4,5-b]pyridin-2-yl)piperazin-1-yl]methanone] | 7.44
CC(C)(C)n1cnc(-c2ccc(C(=O)N3CCN(c4nc5nc(Cl)ccc5o4)CC3)cc2F)n1 [Example 107, [4-(1-tert-butyl-1,2,4-triazol-3-yl)-3-fluorophenyl]-[4-(5-chloro-[1,3]oxazolo[4,5-b]pyridin-2-yl)piperazin-1-yl]methanone] | 7.82
Cc1ccc2oc(N3CCN(C(=O)c4ccc(-c5cn(C6(C(F)(F)F)CC6)nn5)cc4)CC3)nc2n1 [Example 108, [4-(5-methyl-[1,3]oxazolo[4,5-b]pyridin-2-yl)piperazin-1-yl]-[4-[1-[1-(trifluoromethyl)cyclopropyl]triazol-4-yl]phenyl]methanone] | 6.81
Cc1ccc2oc(N3CCN(C(=O)c4ccc(-c5cn(C6(C)COC6)nn5)cc4)CC3)nc2n1 [Example 109, [4-(5-methyl-[1,3]oxazolo[4,5-b]pyridin-2-yl)piperazin-1-yl]-[4-[1-(3-methyloxetan-3-yl)triazol-4-yl]phenyl]methanone] | 5.60
CC1(n2cc(-c3ccc(C(=O)N4CCN(c5nc6nc(Cl)ccc6o5)CC4)cc3)nn2)COC1 [Example 110, [4-(5-chloro-[1,3]oxazolo[4,5-b]pyridin-2-yl)piperazin-1-yl]-[4-[1-(3-methyloxetan-3-yl)triazol-4-yl]phenyl]methanone] | 6.07

— patent US20220135591A1, “HETEROCYCLIC COMPOUNDS AS INHIBITORS OF MONOACYLGLYCEROL LIPASE (MAGL)” (Hoffmann-La Roche Inc., priority 2019, published 2022)
